In assay [1] the test system is Mus musculus. Put plainly: Cognition-enhancing effect in ICR mouse assessed as reduction of scopolamine-induced escape latency and number of errors at 0.1 mg/kg, ig treated 1 hr before scopolamine challenge by passageway water maze test. It is filed as functional, organism-based.
The subject of assay [2] is Mus musculus. As to the kind of experiment: Cognition-enhancing effect in ICR mouse assessed as reduction of scopolamine-induced escape latency and number of errors at 20 mg/kg, ig treated 1 hr before scopolamine challenge by passageway water maze test. It is filed as functional, organism-based.
Assay [3] has as its system Mus musculus. Put plainly: Cognition-enhancing effect in ICR mouse assessed as reduction of scopolamine-induced escape latency and number of errors at 10 to 40 mg/kg, ig treated 1 hr before scopolamine challenge by passageway water maze test. It is filed as functional, organism-based.
Another assay has as its system SH-SY5Y. Put plainly: Neuroprotective activity in human SH-SY5Y cells assessed as production against amyloid beta (25 to 35)-induced cell death by measuring cell viability at 1 uM after 24 hrs by MTT assay. It is filed as functional. (Tetrazolium dyes change colour on reduction, which living cells bring about.)
Assay [4] has as its system Mus musculus. As to the kind of experiment: Cognition-enhancing effect in ig dosed ICR mouse assessed as reduction of scopolamine-induced escape latency and number of errors treated 1 hr before scopolamine challenge by passageway water maze test. It is filed as functional, organism-based.

Active and inactive are the calls of the source. No cut-off for these calls is given here.

For the compound `CC(=O)O[C@H]1C[C@@H]2[C@@H](OC(=O)c3ccccc3)[C@]3(OC2(C)C)[C@H](C)CC[C@H](OC(=O)c2ccccc2)[C@@]13C`, the outcome in the assay on Mus musculus [1] and in the assay with Mus musculus [2] was Active.
As for `CC(=O)O[C@@H]1[C@@H]2[C@@H](OC(C)=O)[C@]3(OC2(C)C)[C@H](C)CC[C@H](OC(C)=O)[C@@]3(C)[C@H]1OC(=O)c1ccccc1`, the outcome in the assay on Mus musculus [3] was inactive.
Turning to `CC(=O)O[C@H]1C[C@@H]2[C@@H](OC(C)=O)[C@]3(OC2(C)C)[C@H](C)CC[C@H](OC(=O)c2ccccc2)[C@@]13C`, the result with Mus musculus [1] and with Mus musculus [2] was Active.
In the case of `CC(=O)OC[C@@]12[C@@H](OC(C)=O)CC[C@@H](C)[C@]13OC(C)(C)[C@H](C[C@@H]2OC(=O)c1ccccc1)[C@H]3OC(C)=O`, the outcome with Mus musculus [1] and with Mus musculus [2] was Active.
Turning to `CC(=O)O[C@@H]1[C@H]2C[C@H](OC(=O)/C=C/c3ccccc3)[C@]3(C)[C@@H](OC(C)=O)[C@@H](OC(=O)c4ccccc4)C[C@@H](C)[C@@]13OC2(C)C`, the Activity in the assay on SH-SY5Y is recorded as 79.6%.
Regarding `CC(=O)O[C@H]1[C@@H](OC(=O)/C=C/c2ccccc2)C[C@@H](C)[C@@]23C[C@@H](C[C@H](OC(=O)/C=C/c4ccccc4)[C@]12C)C(C)(C)O3`, the Activity in the assay with SH-SY5Y is 76.3%.
With `CC(=O)O[C@H]1CC[C@@H](C)[C@@]23C[C@@H](C[C@H](OC(=O)/C=C/c4ccccc4)[C@]12C)C(C)(C)O3`, in the assay on Mus musculus [4], the Activity result is “Dose-dependent effect”. For the same compound, the result in the assay on Mus musculus [1] was Active.
With `C/C=C1\[C@H]2C=C(C)C[C@]1(N)c1ccc(=O)[nH]c1C2`, the outcome in the assay on Mus musculus [1] was Active.

(Values after ChEMBL document CHEMBL3608215, “Natural β-Dihydroagarofuran-Type Sesquiterpenoids as Cognition-Enhancing and Neuroprotective Agents from Medicinal Plants of the Genus Celastrus” (2015).)
